System: Wistar (Crl:WI(Han)) rats
Assay: Mass spectrometry-based plasma metabolite profiling of rats treated with known inducers of thyroid function impairment
Format: in vivo, rat
Conditions: ratio of group medians vs controls
From the text: At the beginning of the study the animals were 10-11 weeks old. Each dose group in the studies consisted of five rats per sex, and was compared with controls (10 rats per sex). […] The dose levels were chosen to show the typical overt (high dose) and slight (low dose) toxicological symptoms of the substances as described in the literature or in BASF internal study reports.
Blood samples were withdrawn from the retro-orbital sinus in all rats under isoflurane anesthesia on study days 7, 14 and 28 after a fasting period of 16-20 hours.
For mass spectrometry-based metabolite profiling analysis, plasma samples were extracted by a proprietary method which delivers a polar and a non-polar fraction. For GC-MS analysis, the non-polar fraction was treated with methanol under acidic conditions to yield the fatty acid methyl esters. Both fractions were further derivatised with Omethyl-hydroxyamine hydrochloride and pyridine to convert oxo groups to Omethyloximes and subsequently with a silylating agent before analysis.
In LC-MS/MS analysis, both fractions were reconstituted in appropriate solvent mixtures. HPLC was performed by gradient elution on reversed phase separation columns. For mass spectrometric detection metanomics proprietary technology was applied, which allows target and high sensitivity MRM (Multiple Reaction Monitoring) profiling in parallel to a full screen analysis. […] Moreover, several hundred additional analytes giving a fingerprint of the sample were included in the methods.
Following comprehensive analytical validation steps, the data for each analyte were normalized against data from pool samples. These samples were run in parallel through the whole process to account for process variability.
The sex- and day-stratified heteroscedastic t-test (“Welch test”) was applied to compare treated groups with respective controls. p-Values and ratios of corresponding group medians were collected as metabolic profiles and fed into a database.

[1] = male rats, mh7 (study day 7), Table 4
[2] = male rats, mh14 (study day 14), Table 4
[3] = male rats, mh28 (study day 28), Table 4
[4] = female rats, fh7 (study day 7), Table 3
[5] = female rats, fh14 (study day 14), Table 3
[6] = female rats, fh28 (study day 28), Table 3
[7] = female rats, fh7 (study day 7), Table 1
[8] = female rats, fh14 (study day 14), Table 1
[9] = female rats, fh28 (study day 28), Table 1

SMILES: Cc1cccc(C)c1N(Cn1cccn1)C(=O)CCl [Metazachlor]
- Behenic acid (C22:0) [1]: 1.92
- Cholesterol [1]: 1.71
- Citrate [1]: 0.99
- Cytosine [1]: 0.64
- Galactose, lipid fraction [1]: 1.81
- Glycerol phosphate [1]: 1.63
- Glycine [1]: 1.12
- Lignoceric acid (C24:0) [1]: 1.60
- Mannose [1]: 1.22
- Nervonic acid C24:(cis[15]1) [1]: 3.17
- Phospha-tidylcholine (C18:0, 18:2) [1]: 1.40
- Sphingomyelin (d18:1, C16:0) [1]: 2.54
- Stearic acid (C18:0) [1]: 1.45
- Threonic acid [1]: 1.16
- dihomo-gamma-Linolenic acis (C20:cis[8,11,14]3) [1]: 2.41
- erythro-Sphingosine [1]: 2.31
- myo-Inositol-2-phosphate [1]: 2.17
- threo-Sphingosine [1]: 2.05
- Behenic acid (C22:0) [2]: 2.47
- Cholesterol [2]: 2.15
- Citrate [2]: 0.94
- Cytosine [2]: 0.75
- Galactose, lipid fraction [2]: 2.27
- Glycerol phosphate [2]: 2.20
- Glycine [2]: 1.10
- Lignoceric acid (C24:0) [2]: 2.38
- Mannose [2]: 1.37
- Nervonic acid C24:(cis[15]1) [2]: 4.00
- Phospha-tidylcholine (C18:0, 18:2) [2]: 1.55
- Sphingomyelin (d18:1, C16:0) [2]: 2.36
- Stearic acid (C18:0) [2]: 2.36
- Threonic acid [2]: 1.25
- dihomo-gamma-Linolenic acis (C20:cis[8,11,14]3) [2]: 5.18
- erythro-Sphingosine [2]: 3.47
- myo-Inositol-2-phosphate [2]: 4.01
- threo-Sphingosine [2]: 3.22
- Behenic acid (C22:0) [3]: 2.05
- Cholesterol [3]: 2.43
- Citrate [3]: 1.08
- Cytosine [3]: 0.66
- Galactose, lipid fraction [3]: 2.57
- Glycerol phosphate [3]: 2.36
- Glycine [3]: 1.26
- Lignoceric acid (C24:0) [3]: 2.11
- Mannose [3]: 1.46
- Nervonic acid C24:(cis[15]1) [3]: 3.63
- Phospha-tidylcholine (C18:0, 18:2) [3]: 1.51
- Sphingomyelin (d18:1, C16:0) [3]: 2.32
- Stearic acid (C18:0) [3]: 2.59
- Threonic acid [3]: 1.36
- dihomo-gamma-Linolenic acis (C20:cis[8,11,14]3) [3]: 3.36
- erythro-Sphingosine [3]: 3.68
- myo-Inositol-2-phosphate [3]: 2.79
- threo-Sphingosine [3]: 3.54

SMILES: Cc1ncc[nH]1 [2-Methylimidazole]
- Arachidonic acid (C20:cis[58,11,14]4) [4]: 1.04
- Behenic acid (C22:0) [4]: 1.34
- Cholesterol [4]: 1.14
- Cysteine [4]: 0.70
- Docosahexaenoic acid (C22:cis[4,7,10,13,16,19]6) [4]: 1.37
- Dodecanol [4]: 1.06
- Eicosanoic acid (C20:0) [4]: 1.06
- Glycerol phosphate [4]: 1.21
- Heptadecanoic acid (C17:0) [4]: 1.14
- Linoleic acid (C18:cis[9,12]2) [4]: 1.19
- Nervonic acid C24:(cis[15]1) [4]: 1.11
- Palmitic acid (C16:0) [4]: 1.21
- Sphingomyelin (d18:1, C16:0) [4]: 1.34
- Stearic acid (C18:0) [4]: 0.99
- Threonic acid [4]: 1.45
- dihomo-gamma-Linolenic acid (C20:cis[8,11,14]3) [4]: 0.83
- erythro-Sphingosine [4]: 1.38
- gamma-Linolenic acid (C18:cis[6,9,12]3) [4]: 0.91
- myo-Inositol-2-phosphate [4]: 1.61
- threo-Sphingosine [4]: 1.28
- Arachidonic acid (C20:cis[58,11,14]4) [5]: 1.20
- Behenic acid (C22:0) [5]: 1.25
- Cholesterol [5]: 1.41
- Cysteine [5]: 0.63
- Docosahexaenoic acid (C22:cis[4,7,10,13,16,19]6) [5]: 1.42
- Dodecanol [5]: 1.11
- Eicosanoic acid (C20:0) [5]: 1.34
- Glycerol phosphate [5]: 1.26
- Heptadecanoic acid (C17:0) [5]: 1.27
- Linoleic acid (C18:cis[9,12]2) [5]: 1.27
- Nervonic acid C24:(cis[15]1) [5]: 1.52
- Palmitic acid (C16:0) [5]: 1.30
- Sphingomyelin (d18:1, C16:0) [5]: 1.26
- Stearic acid (C18:0) [5]: 1.02
- Threonic acid [5]: 1.26
- dihomo-gamma-Linolenic acid (C20:cis[8,11,14]3) [5]: 1.53
- erythro-Sphingosine [5]: 1.61
- gamma-Linolenic acid (C18:cis[6,9,12]3) [5]: 1.67
- myo-Inositol-2-phosphate [5]: 1.60
- threo-Sphingosine [5]: 1.63
- Arachidonic acid (C20:cis[58,11,14]4) [6]: 1.36
- Behenic acid (C22:0) [6]: 1.34
- Cholesterol [6]: 1.55
- Cysteine [6]: 0.76
- Docosahexaenoic acid (C22:cis[4,7,10,13,16,19]6) [6]: 1.27
- Dodecanol [6]: 1.05
- Eicosanoic acid (C20:0) [6]: 1.15
- Glycerol phosphate [6]: 1.26
- Heptadecanoic acid (C17:0) [6]: 1.38
- Linoleic acid (C18:cis[9,12]2) [6]: 1.21
- Nervonic acid C24:(cis[15]1) [6]: 1.74
- Palmitic acid (C16:0) [6]: 1.44
- Sphingomyelin (d18:1, C16:0) [6]: 1.27
- Stearic acid (C18:0) [6]: 1.17
- Threonic acid [6]: 0.98
- dihomo-gamma-Linolenic acid (C20:cis[8,11,14]3) [6]: 1.26
- erythro-Sphingosine [6]: 1.69
- gamma-Linolenic acid (C18:cis[6,9,12]3) [6]: 2.30
- myo-Inositol-2-phosphate [6]: 1.70
- threo-Sphingosine [6]: 1.66

SMILES: N#Cc1ccc(CC(=NNC(=O)Nc2ccc(OC(F)(F)F)cc2)c2cccc(C(F)(F)F)c2)cc1 (mixture of isomers) [Metaflumizone]
- 5-O-Methylsphingosine [7]: 0.99
- Asparagine [7]: 0.75
- Behenic acid (C22:0) [7]: 1.12
- Citrate [7]: 0.84
- Docosahexaenoic acid (C22:cis[4,7,10,13,16]6) [7]: 1.52
- Glycine [7]: 0.93
- Ketoleucine [7]: 0.97
- Lysophosphatidylcholine (C18:2) [7]: 0.88
- Phosphatidylcholine (C16:1, C18:2) [7]: 1.14
- Phosphatidylcholine (C18:2, C20:4) [7]: 1.14
- Pyruvate [7]: 0.64
- Tricosanoic acid (C23:0) [7]: 1.28
- erythro-Sphingosine [7]: 1.25
- threo-Sphingosine [7]: 1.29
- Sphingomyelin (d18:1, C16:0) (female rats, fh7 (study day 7), Table 1, first listing): 1.29
- Sphingomyelin (d18:1, C16:0) (female rats, fh7 (study day 7), Table 1, second listing): 0.97
- 5-O-Methylsphingosine [8]: 1.42
- Asparagine [8]: 0.57
- Behenic acid (C22:0) [8]: 1.28
- Citrate [8]: 0.62
- Docosahexaenoic acid (C22:cis[4,7,10,13,16]6) [8]: 2.54
- Glycine [8]: 0.97
- Ketoleucine [8]: 0.81
- Lysophosphatidylcholine (C18:2) [8]: 1.20
- Phosphatidylcholine (C16:1, C18:2) [8]: 1.40
- Phosphatidylcholine (C18:2, C20:4) [8]: 1.16
- Pyruvate [8]: 0.54
- Tricosanoic acid (C23:0) [8]: 1.41
- erythro-Sphingosine [8]: 1.50
- threo-Sphingosine [8]: 1.27
- Sphingomyelin (d18:1, C16:0) (female rats, fh14 (study day 14), Table 1, first listing): 1.45
- Sphingomyelin (d18:1, C16:0) (female rats, fh14 (study day 14), Table 1, second listing): 1.10
- 5-O-Methylsphingosine [9]: 2.07
- Asparagine [9]: 1.17
- Behenic acid (C22:0) [9]: 2.03
- Citrate [9]: 0.88
- Docosahexaenoic acid (C22:cis[4,7,10,13,16]6) [9]: 1.98
- Glycine [9]: 1.63
- Ketoleucine [9]: 0.81
- Lysophosphatidylcholine (C18:2) [9]: 1.11
- Phosphatidylcholine (C16:1, C18:2) [9]: 1.86
- Phosphatidylcholine (C18:2, C20:4) [9]: 1.20
- Pyruvate [9]: 0.72
- Tricosanoic acid (C23:0) [9]: 2.56
- erythro-Sphingosine [9]: 1.82
- threo-Sphingosine [9]: 1.89
- Sphingomyelin (d18:1, C16:0) (female rats, fh28 (study day 28), Table 1, first listing): 1.38
- Sphingomyelin (d18:1, C16:0) (female rats, fh28 (study day 28), Table 1, second listing): 1.15
